In patent US20050208496A1, “Methods of testing for bronchial asthma or chronic obstructive pulmonary disease” (Genox Research, Inc., priority 2002, published 2005):
Read-outs that look alike come from different tables or passages of the source.

Test system: respiratory epithelial cells
[1] = IL-13 vs no stimulation, lot 2 Day 3 AI
[2] = IL-13 vs no stimulation, lot 2 Day 7 AI

IL-13: human IL-13 (Peprotech, Inc.) added to the medium at 50 ng/mL to stimulate respiratory epithelial cells
IGFBP6 (1736_at) expression change [1]: −4.7 | LOH11CR2A (38151_at) expression change [1]: −3.2 | MMP9 (31859_at) expression change [1]: −18 | MMP10 (1006_at) expression change [1]: −30.3 | MSMB (32149_at) expression change [1]: −21.3 | NDRG1 (36933_at) expression change [1]: −2.9 | NOTCH3 (38750_at) expression change [1]: −4.5 | PFTK1 (36502_at) expression change [1]: −2.3 | PSCA (33792_at) expression change [1]: −4.9 | PTK2B (33804_at) expression change [1]: −3.7 | PTPRZ1 (1364_at) expression change [1]: −4.3 | RARRES1 (1042_at) expression change [1]: −3.1 | RARRES1 (33505_at) expression change [1]: −3.5 | RDC1 (34288_at) expression change [1]: −3.7 | RTP801 (39827_at) expression change [1]: −2.3 | S100A8 (41096_at) expression change [1]: −3 | SEC14L2 (32817_at) expression change [1]: −6.9 | SERPINA3 (33825_at) expression change [1]: −7 | SERPINE1 (672_at) expression change [1]: −62.1 | SERPINE1 (38125_at) expression change [1]: −11.2 | STK39 (39120_at) expression change [1]: −2.6 | TSPAN-5 (40990_at) expression change [1]: −3.2 | VRP (38223_at) expression change [1]: −2 | c-fos (1915_s_at) expression change [1]: −2 | c-fos (1916_s_at) expression change [1]: −3.1 | AGR2 (38827_at) expression change [2]: −3.7 | AKR1B10 (37482_at) expression change [2]: −9.7 | AKR1C3 (37399_at) expression change [2]: −2.8 | ANXA10 (32349_at) expression change [2]: −18.9 | APM2 (32527_at) expression change [2]: −3.3 | BCAS1 (37821_at) expression change [2]: −13.2 | BDKRB2 (39310_at) expression change [2]: −4.2 | BENE (33331_at) expression change [2]: −8.5 | C4.4A (41641_at) expression change [2]: −6.8 | CRA (1230_g_at) expression change [2]: −3 | CTSL2 (40717_at) expression change [2]: −5.6 | DEFB2 (32464_at) expression change [2]: −2.6 | ECM1 (37600_at) expression change [2]: −11 | EPHA1 (1108_s_at) expression change [2]: −3.6 | ETFB (36881_at) expression change [2]: −3.4 | FABP5 (39799_at) expression change [2]: −3 | GABRE (34280_at) expression change [2]: −3.2 | HLA-DPB1 (38095_i_at) expression change [2]: −2.5 | HLA-DPB1 (38096_f_at) expression change [2]: −3.3 | IGFBP6 (1736_at) expression change [2]: −7.2 | IMPA2 (36496_at) expression change [2]: −2.7 | MMP9 (31859_at) expression change [2]: −113.5 | MMP10 (1006_at) expression change [2]: −35.2 | MN1 (37283_at) expression change [2]: −7.3 | MSMB (32149_at) expression change [2]: −8.1 | NCALD (38803_at) expression change [2]: −4.2 | NOTCH3 (38750_at) expression change [2]: −3.5 | PFTK1 (36502_at) expression change [2]: −3.5 | PSCA (33792_at) expression change [2]: −9.2 | PTK2B (33804_at) expression change [2]: −3.5 | PTPRZ1 (1364_at) expression change [2]: −14.9 | RARRES1 (1042_at) expression change [2]: −2.4 | RARRES1 (33505_at) expression change [2]: −3.4 | RDC1 (34288_at) expression change [2]: −3 | RTP801 (39827_at) expression change [2]: −2.4 | S100A8 (41096_at) expression change [2]: −6.1 | SERPINA3 (33825_at) expression change [2]: −9.3 | SERPINB1 (33305_at) expression change [2]: −2.9 | SERPINB5 (862_at) expression change [2]: −2.2 | SERPINE1 (672_at) expression change [2]: −34.4 | SERPINE1 (38125_at) expression change [2]: −11 | STK39 (39120_at) expression change [2]: −2.3 | TSPAN-5 (40990_at) expression change [2]: −6 | VRP (38223_at) expression change [2]: −2.4 | c-fos (1915_s_at) expression change [2]: −2.3 | c-fos (1916_s_at) expression change [2]: −3.6 | pendrin gene expression level, factor of increase in response to IL-13 stimulation (IMM method, day 3 and day 7, both Lots 1 and 2): ≥ 20 | pendrin gene (36376_at, AF030880) expression fold change upon IL-13 stimulation, HG-U95A chip (Lot 2, Day 3, AI): 118.3 | pendrin gene (36376_at, AF030880) expression fold change upon IL-13 stimulation, HG-U95A chip (Lot 2, Day 7, AI): 58.2 | AA149682 (51925_at) expression fold change (lot 1, Day 3, AI method): 2.9 fold | AA420479 (52539_at) expression fold change (lot 1, Day 3, AI method): 3.8 fold | AA541787 (52622_at) expression fold change (lot 1, Day 3, AI method): 3.3 fold | AA582926 (52307_at) expression fold change (lot 1, Day 3, AI method): 2.4 fold | ACP5 (677_s_at) expression, fold change upon IL-13 stimulation (lot 1, Day 3, AI method): −2.8 fold | ADAM8 (40712_at) expression, fold change upon IL-13 stimulation (lot 1, Day 3, AI method): 5.8 fold | ADAM28 (35479_at) expression, fold change upon IL-13 stimulation (lot 1, Day 3, AI method): 9 fold | AI310524 (47087_at) expression fold change (lot 1, Day 3, AI method): 3.6 fold | AI565105 (54886_at) expression fold change (lot 1, Day 3, AI method): 2.8 fold | AI659927 (54033_at) expression fold change (lot 1, Day 3, AI method): 4.2 fold | AI718385 (53061_at) expression fold change (lot 1, Day 3, AI method): 4.6 fold | AI809925 (53010_at) expression fold change (lot 1, Day 3, AI method): 3.1 fold | AI989346 (52327_s_at) expression fold change (lot 1, Day 3, AI method): 2.9 fold | AKAP2 (35985_at) expression, fold change upon IL-13 stimulation (lot 1, Day 3, AI method): 6 fold | AKAP2 (48035_at) expression fold change (lot 1, Day 3, AI method): 6.6 fold | ALOX15 (34636_at) expression, fold change upon IL-13 stimulation (lot 1, Day 3, AI method): 47.8 fold | BAL (52167_at) expression fold change (lot 1, Day 3, AI method): 3.5 fold | BRCA1 (626_s_at) expression fold change (lot 1, Day 3, AI method): 9.1 fold | BST2 (39061_at) expression, fold change upon IL-13 stimulation (lot 1, Day 3, AI method): 9.9 fold | C1S (40496_at) expression, fold change upon IL-13 stimulation (lot 1, Day 3, AI method): 3.3 fold | C21orf11 (58957_at) expression fold change (lot 1, Day 3, AI method): 6.6 fold | CCND3 (1794_at) expression fold change upon IL-13 stimulation (lot 1, Day 3, AI method): 2.2 fold | CCND3 (1795_g_at) expression fold change upon IL-13 stimulation (lot 1, Day 3, AI method): 2.2 fold | CD47 (37890_at) expression fold change (lot 1, Day 3, AI method): 2.1 fold | CDH6 (1620_at) expression fold change upon IL-13 stimulation (lot 1, Day 3, AI method): 4.3 fold | CDH6 (57421_at) expression fold change (lot 1, Day 3, AI method): 3.5 fold | CDH26 (46916_at) expression fold change (lot 1, Day 3, AI method): 8.9 fold | CH25H (32363_at) expression, fold change upon IL-13 stimulation (lot 1, Day 3, AI method): 9.9 fold | CLDN1 (46260_at) expression fold change (lot 1, Day 3, AI method): 2.4 fold | CLDN4 (35276_at) expression, fold change upon IL-13 stimulation (lot 1, Day 3, AI method): 2.3 fold | CTSC (133_at) expression, fold change upon IL-13 stimulation (lot 1, Day 3, AI method): 3.5 fold | CXCL16 (44095_at) expression fold change (lot 1, Day 3, AI method): 2.5 fold
